Experimental data taken from US20230278972A1, “SUBSTITUTED HALOALKYL SULFONANILIDE HERBICIDES” (FMC Corporation, priority 2020, published 2023).

Legend:
Assay type in all cases: in vivo
[1] = test system: pigweed (Amaranthus retroflexus); experiment: Test A preemergence, pigweed; settings: for Plant response rating, Pigweed: 31 g ai/ha, visual injury, 0 to 100 scale (0 no effect, 100 complete control), approx. 10 days; for Pigweed plant response rating: 125 g ai/ha, visual injury on 0 to 100 scale (0 no effect, 100 complete control), approximately 10 days
How it was run: (§1)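 Directed soil spray at planting gave the preemergence treatment, while foliar application to one- to two-leaf seedlings (2–10 cm) gave the postemergence one; pots held a loam and sand mixture and chemicals were carried in a non-phytotoxic solvent with surfactant.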

corn (Zea mays) = experiment: Test A postemergence, corn; settings: Postemergence, 0 to 100 scale (0 no effect, 100 complete control)
How it was run: (§2)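 Whole-plant herbicidal screen in pots of loam blended with sand. Sprays used a surfactant-containing, non-phytotoxic solvent vehicle. Timing was preemergence soil-directed at planting or postemergence at the one- to two-leaf stage (2–10 cm).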

[2] = test system: Foxtail, Giant (giant foxtail, Setaria faberi); experiment: Test A postemergence, Foxtail, Giant; settings: Postemergence, 0 to 100 scale (0 no effect, 100 complete control)
How it was run: as §2

[3] = test system: Foxtail, Giant (giant foxtail, Setaria faberi); experiment: Test A preemergence, Foxtail, Giant; settings: Preemergence; for Plant response rating, Foxtail, Giant: 31 g ai/ha, visual injury, 0 to 100 scale (0 no effect, 100 complete control), approx. 10 days; for Foxtail, Giant plant response rating: 125 g ai/ha, visual injury on 0 to 100 scale (0 no effect, 100 complete control), approximately 10 days
How it was run: as §2

[4] = test system: Ryegrass, Italian (Italian ryegrass, Lolium multiflorum); experiment: Test A preemergence, Ryegrass, Italian; settings: Preemergence; for Plant response rating, Ryegrass, Italian: 31 g ai/ha, visual injury, 0 to 100 scale (0 no effect, 100 complete control), approx. 10 days; for Ryegrass, Italian plant response rating: 125 g ai/ha, visual injury on 0 to 100 scale (0 no effect, 100 complete control), approximately 10 days
How it was run: as §2

[5] = test system: barnyardgrass (Echinochloa crus-galli); experiment: Test A preemergence, barnyardgrass; settings: Preemergence; for Plant response rating, Barnyardgrass: 31 g ai/ha, visual injury, 0 to 100 scale (0 no effect, 100 complete control), approx. 10 days; for Barnyardgrass plant response rating: 125 g ai/ha, visual injury on 0 to 100 scale (0 no effect, 100 complete control), approximately 10 days
How it was run: as §2

[6] = test system: galium (catchweed bedstraw, Galium aparine); experiment: Test A postemergence, galium; settings: Postemergence, 0 to 100 scale (0 no effect, 100 complete control)
How it was run: as §1

[7] = test system: wheat (Triticum aestivum); experiment: Test A postemergence, wheat; settings: Postemergence, 0 to 100 scale (0 no effect, 100 complete control)
How it was run: as §1

[8] = test system: blackgrass (Alopecurus myosuroides); experiment: Test A postemergence, blackgrass; settings: Postemergence, 0 to 100 scale (0 no effect, 100 complete control)
How it was run: as §2

[9] = test system: pigweed (Amaranthus retroflexus); experiment: Test A postemergence, pigweed; settings: Postemergence, 0 to 100 scale (0 no effect, 100 complete control)
How it was run: as §2

[10] = test system: ragweed (common ragweed, Ambrosia artemisiifolia); experiment: Test A postemergence, ragweed; settings: Postemergence, 0 to 100 scale (0 no effect, 100 complete control)
How it was run: as §2

kochia (Bassia scoparia) [11] = experiment: Test A postemergence, kochia; settings: Postemergence, 0 to 100 scale (0 no effect, 100 complete control)
How it was run: as §2

[12] = test system: Ryegrass, Italian (Italian ryegrass, Lolium multiflorum); experiment: Test A postemergence, Ryegrass, Italian; settings: Postemergence, 0 to 100 scale (0 no effect, 100 complete control)
How it was run: as §2

[13] = test system: barnyardgrass (Echinochloa crus-galli); experiment: Test A postemergence, barnyardgrass; settings: Postemergence, 0 to 100 scale (0 no effect, 100 complete control)
How it was run: as §1

kochia (Bassia scoparia) [14] = experiment: Test A preemergence, kochia; settings: Preemergence; for Plant response rating, Kochia: 31 g ai/ha, visual injury, 0 to 100 scale (0 no effect, 100 complete control), approx. 10 days; for Kochia plant response rating: 125 g ai/ha, visual injury on 0 to 100 scale (0 no effect, 100 complete control), approximately 10 days
How it was run: as §2

[15] = test system: ragweed (common ragweed, Ambrosia artemisiifolia); experiment: Test A preemergence, ragweed; settings: Preemergence; for Plant response rating, Ragweed: 31 g ai/ha, visual injury, 0 to 100 scale (0 no effect, 100 complete control), approx. 10 days; for Ragweed plant response rating: 125 g ai/ha, visual injury on 0 to 100 scale (0 no effect, 100 complete control), approximately 10 days
How it was run: as §2

[16] = 125 g ai/ha, visual injury approx. 10 days

| Compound | Plant response rating, Pigweed [1] | Pigweed plant response rating [1] | Plant response rating, Corn (corn (Zea mays); 31 g ai/ha) | Plant response rating, Corn (corn (Zea mays); [16]) | Plant response rating, Foxtail, Giant ([2]; 31 g ai/ha) | Plant response rating, Foxtail, Giant [2, 16] | Plant response rating, Foxtail, Giant [3] | Foxtail, Giant plant response rating [3] | Plant response rating, Ryegrass, Italian [4] | Ryegrass, Italian plant response rating [4] | Plant response rating, Barnyardgrass [5] | Barnyardgrass plant response rating [5] | Plant response rating, Galium ([6]; 31 g ai/ha) | Plant response rating, Galium [6, 16] | Plant response rating, Wheat ([7]; 31 g ai/ha) | Plant response rating, Wheat [7, 16] | Plant response rating, Blackgrass ([8]; 31 g ai/ha) | Plant response rating, Blackgrass [8, 16] | Plant response rating, Pigweed ([9]; 31 g ai/ha) | Plant response rating, Pigweed [9, 16] | other results |
| --- | --- | --- | --- | --- | --- | --- | --- | --- | --- | --- | --- | --- | --- | --- | --- | --- | --- | --- | --- | --- | --- |
| COC1CCCN(C(=O)c2cc(N(C(C)=O)S(=O)(=O)C(F)(F)F)c(C)cc2C)C1 (stereo not shown) [Compound 93] | 50 | 100 | 0 | 20 | 0 | 10 | 60 | 80 | 0 | 80 | 0 | 80 | 80 | 80 | 30 | 60 | 20 | 70 | 30 | 50 | Plant response rating, Ragweed ([10]; 31 g ai/ha): 30; Plant response rating, Ragweed [10, 16]: 30; Plant response rating, Kochia (kochia (Bassia scoparia) [11]; 31 g ai/ha): 10; Plant response rating, Kochia (kochia (Bassia scoparia) [11]; [16]): 30; Plant response rating, Ryegrass, Italian ([12]; 31 g ai/ha): 0; Plant response rating, Ryegrass, Italian [12, 16]: 20; Plant response rating, Barnyardgrass ([13]; 31 g ai/ha): 0; Plant response rating, Barnyardgrass [13, 16]: 60; Plant response rating, Kochia (kochia (Bassia scoparia) [14]): 0; Kochia plant response rating (kochia (Bassia scoparia) [14]): 50; Plant response rating, Ragweed [15]: 0; Ragweed plant response rating [15]: 70 |
| CO[C@@H]1CCCN(C(=O)c2cc(NS(=O)(=O)C(F)(F)F)c(C)cc2C)C1 [Compound 94] | 100 | 100 | 0 | 20 | 0 | 30 | 50 | 100 | 30 | 90 | 10 | 90 | 70 | 90 | 10 | 50 | 0 | 20 | 50 | 80 | Plant response rating, Ragweed ([10]; 31 g ai/ha): 10; Plant response rating, Ragweed [10, 16]: 40; Plant response rating, Kochia (kochia (Bassia scoparia) [11]; 31 g ai/ha): 10; Plant response rating, Kochia (kochia (Bassia scoparia) [11]; [16]): 50; Plant response rating, Ryegrass, Italian ([12]; 31 g ai/ha): 20; Plant response rating, Ryegrass, Italian [12, 16]: 50; Plant response rating, Barnyardgrass ([13]; 31 g ai/ha): 20; Plant response rating, Barnyardgrass [13, 16]: 60; Plant response rating, Kochia (kochia (Bassia scoparia) [14]): 0; Kochia plant response rating (kochia (Bassia scoparia) [14]): 60; Plant response rating, Ragweed [15]: 0; Ragweed plant response rating [15]: 30 |
